logP data for 20 compounds are collected here from the SangsterLogP compilation.

The term logP denotes a log measure of how a compound divides between an organic and an aqueous phase. Lower therefore signals a more hydrophilic compound. Turning to `NS(=O)(=O)c1ccnc2ccccc12`, the logP is 0.93.

Regarding `CN(C)S(=O)(=O)c1cnc2ccccc2c1`, the lipophilicity (logP) amounted to 1.86. Take `NS(=O)(=O)c1cccc2cccnc12`: the logP is 0.51. On to `CNS(=O)(=O)c1ccc2ncccc2c1`, for which the logP is 1.

In turn, `CNS(=O)(=O)c1ccc2ccccc2n1` gave a lipophilicity (logP) of 1.57. For the compound `CNS(=O)(=O)c1cccc2cccnc12`, the logP is 1.13.

The compound `CN(C)S(=O)(=O)c1cccc2ncccc12` showed a lipophilicity (logP) of 1.56.

`NS(=O)(=O)c1cnc2ccccc2c1` had a lipophilicity (logP) of 0.91. For `CN(C)S(=O)(=O)c1ccc2ccccc2n1`, the logP turned out to be 1.98. On to `NS(=O)(=O)c1cccc2ncccc12`, for which the logP is 0.6. On to `CN(C)S(=O)(=O)c1ccnc2ccccc12`, for which the log partition coefficient (logP) was found to be 1.84. `CNS(=O)(=O)c1ccc2cccnc2c1` showed a logP of 1.02. Take `CNS(=O)(=O)c1cnc2ccccc2c1`: the lipophilicity (logP) came to 1.4. On to `CNS(=O)(=O)c1cccc2ncccc12`, for which the lipophilicity (logP) came out at 1.06. In turn, `CN(C)S(=O)(=O)c1ccc2cccnc2c1` came in with a logP of 1.57. For the compound `CNS(=O)(=O)c1ccnc2ccccc12`, the lipophilicity (logP) worked out at 1.32.

Compound `NS(=O)(=O)c1ccc2cccnc2c1` had a log partition coefficient (logP) of 0.61. Take `NS(=O)(=O)c1ccc2ccccc2n1`: the logP is 1.16. In turn, `CN(C)S(=O)(=O)c1cccc2cccnc12` yielded a logP of 1.69.

The compound `CN(C)S(=O)(=O)c1ccc2ncccc2c1` displayed a log partition coefficient (logP) of 1.53.
